We go through five compounds from patent US8937080B2, “Pyrimidine substituted macrocyclic HCV inhibitors” (Medivir AB, priority 2007, dated 2015).

pEC50, pKi: −log10 of the molar value. Read-outs that look alike come from different tables or passages of the source.

For series [1] the following is noted: rcm bond, 14-membered ring, Hoveyda-Grubbs II, DCE, 16.0 h.
The conditions of series [2]: from C=CCCCCN(C)C(=O)C1CC(Oc2ccnc(-c3ccccc3)n2)CC1C(=O)NC1(C(=O)NS(=O)(=O)C2CC2)CC1C=C; rcm bond; 14-membered ring; Hoveyda-Grubbs II; 150.0 °C; 0.17 h.
Series [3] concerns HCV replicons (wild type NS3-NS5B regions of HCV type 1b) in Huh-7 luc/neo cells. The series can be described thus: Replicon assay (Huh-Luc cells, luciferase readout). It counts as cell-based. To be noted: Hepatitis C virus, Huh-7, 72 h, incubation of three days, luciferase activity. From the text: The compounds of formula (I) were examined for activity in the inhibition of HCV RNA replication in a cellular assay. […] The cellular assay was based on a bicistronic expression construct, as described by Lohmann et al. (1999) Science vol. 285 pp. 110-113 with modifications described by Krieger et al. (2001) Journal of Virology 75: 4614-4624, in a multi-target screening strategy. In essence, the method was as follows.
The assay utilized the stably transfected cell line Huh-7 luc/neo (hereafter referred to as Huh-Luc). This cell line harbors an RNA encoding a bicistronic expression construct comprising the wild type NS3-NS5B regions of HCV type 1b translated from an Internal Ribosome Entry Site (IRES) from encephalomyocarditis virus (EMCV), preceded by a reporter portion (FfL-luciferase), and a selectable marker portion (neo^R, neomycine phosphotransferase). The construct is bordered by 5′ and 3′ NTRs (non-translated regions) from HCV type 1b. Continued culture of the replicon cells in the presence of G418 (neo^R) is dependent on the replication of the HCV RNA. The stably transfected replicon cells that express HCV RNA, which replicates autonomously and to high levels, encoding inter alia luciferase, are used for screening the antiviral compounds.
The replicon cells were plated in 384 well plates in the presence of the test and control compounds which were added in various concentrations. Following an incubation of three days, HCV replication was measured by assaying luciferase activity (using standard luciferase assay substrates and reagents and a Perkin Elmer ViewLux™ ultraHTS microplate imager). Replicon cells in the control cultures have high luciferase expression in the absence of any inhibitor. The inhibitory activity of the compound on luciferase activity was monitored on the Huh-Luc cells, enabling a dose-response curve for each test compound. EC50 values were then calculated, which value represents the amount of the compound required to decrease by 50% the level of detected luciferase activity, or more specifically, the ability of the genetically linked HCV replicon RNA to replicate.
(In general: In antiviral work, replicon cells carry a viral genome segment that copies itself.)

Series [4] deals with HCV NS3/4A protease complexes (full-length hepatitis C NS3 protease enzyme with NS4A cofactor) (Hepatitis C virus genotype 1a, UniProt P27958). As to the kind of experiment: Inhibition assay (enzymatic assay, depsipeptide substrate hydrolysis). It counts as biochemical. The note with it: enzyme 1 nM, 25 μM NS4A cofactor, 0.5 μM substrate, 30° C., competitive inhibition model. How it is done:
The aim of this in vitro assay is to measure the inhibition of HCV NS3/4A protease complexes by the compounds of the present invention. This assay provides an indication of how effective compounds of the present invention would be in inhibiting HCV NS3/4A proteolytic activity.
The inhibition of full-length hepatitis C NS3 protease enzyme was measured essentially as described in Poliakov, 2002 Prot Expression & Purification 25 363 371. Briefly, the hydrolysis of a depsipeptide substrate, Ac-DED(Edans)EEAbuψ[COO]ASK(Dabcyl)-NH2 (AnaSpec, San José, USA), was measured spectrofluorometrically in the presence of a peptide cofactor, KKGSVVIVGRIVLSGK (Åke Engström, Department of Medical Biochemistry and Microbiology, Uppsala University, Sweden). [Landro, 1997 #Biochem 36 9340-9348]. The enzyme (1 nM) was incubated in 50 mM HEPES, pH 7.5, 10 mM DTT, 40% glycerol, 0.1% n-octyl-D-glucoside, with 25 μM NS4A cofactor and inhibitor at 30° C. for 10 min, whereupon the reaction was initiated by addition of 0.5 μM substrate. Inhibitors were dissolved in DMSO, sonicated for 30 sec. and vortexed. The solutions were stored at −20° C. between measurements.
The final concentration of DMSO in the assay sample was adjusted to 3.3%. The rate of hydrolysis was corrected for inner filter effects according to published procedures.
[Liu, 1999 Analytical Biochemistry 267 331-335]. Ki values were estimated by non-linear regression analysis (GraFit, Erithacus Software, Staines, MX, UK), using a model for competitive inhibition and a fixed value for Km (0.15 μM). A minimum of two replicates was performed for all measurements.

Chain of HCV NS3/4A protease complexes (full-length hepatitis C NS3 protease enzyme with NS4A cofactor) (P27958 1027-1657, other chains not shown): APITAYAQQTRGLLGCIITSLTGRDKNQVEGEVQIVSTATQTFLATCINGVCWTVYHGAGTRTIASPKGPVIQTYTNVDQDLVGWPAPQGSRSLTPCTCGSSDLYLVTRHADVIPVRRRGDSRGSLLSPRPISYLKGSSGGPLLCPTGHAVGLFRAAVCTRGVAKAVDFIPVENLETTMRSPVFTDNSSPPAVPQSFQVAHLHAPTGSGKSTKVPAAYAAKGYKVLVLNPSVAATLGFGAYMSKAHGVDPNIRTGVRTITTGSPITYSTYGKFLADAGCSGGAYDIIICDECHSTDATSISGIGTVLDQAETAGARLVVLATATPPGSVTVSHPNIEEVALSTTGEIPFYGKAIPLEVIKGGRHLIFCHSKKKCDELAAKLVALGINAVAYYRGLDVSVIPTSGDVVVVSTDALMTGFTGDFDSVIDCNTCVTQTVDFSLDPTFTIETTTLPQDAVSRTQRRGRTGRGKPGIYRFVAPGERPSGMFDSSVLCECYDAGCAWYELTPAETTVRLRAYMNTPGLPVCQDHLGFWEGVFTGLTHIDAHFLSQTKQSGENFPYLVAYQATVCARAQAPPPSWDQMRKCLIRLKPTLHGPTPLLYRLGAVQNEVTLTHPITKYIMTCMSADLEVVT

Compound `CCOC(=O)C12CC1C=CCCCCN(C)C(=O)C1CC(Oc3cc(-c4ccccc4)nc(OC)n3)CC1C(=O)N2` (stereo not shown) displayed a ring closure, isolated yield in series [1] (from C=CCCCCN(C)C(=O)C1CC(Oc2cc(-c3ccccc3)nc(OC)n2)CC1C(=O)NC1(C(=O)OCC)CC1C=C, 1.83 mM) of 70%.

On to `CCOC(=O)C12CC1C=CCCCCN(C)C(=O)C1CC(Oc3cc(C(C)(C)C)nc(OC)n3)CC1C(=O)N2` (stereo not shown), for which the ring closure, isolated yield in series [1] (from C=CCCCCN(C)C(=O)C1CC(Oc2cc(C(C)(C)C)nc(OC)n2)CC1C(=O)NC1(C(=O)OCC)CC1C=C, 1.74 mM) worked out at 74%.

The compound `CCOC(=O)C12CC1C=CCCCCN(C)C(=O)C1CC(Oc3cc(OC)nc(-c4ccccc4)n3)CC1C(=O)N2` (stereo not shown) gave a ring closure, isolated yield in series [1] (from C=CCCCCN(C)C(=O)C1CC(Oc2cc(OC)nc(-c3ccccc3)n2)CC1C(=O)NC1(C(=O)OCC)CC1C=C, 1.69 mM) of 38%.

On to `CCOC(=O)C12CC1C=CCCCCN(C)C(=O)C1CC(Oc3cc(OC)nc(OC)n3)CC1C(=O)N2` (stereo not shown), for which the ring closure, isolated yield in series [1] (from C=CCCCCN(C)C(=O)C1CC(Oc2cc(OC)nc(OC)n2)CC1C(=O)NC1(C(=O)OCC)CC1C=C, 1.91 mM) amounted to 49%.

Usually pEC50 stands for the EC50 on a negative log10 scale, so that one unit is a factor of ten. The term pKi denotes the Ki on a negative log10 scale, so that one unit is a factor of ten. In series [2], `CN1CCCCC=CC2CC2(C(=O)NS(=O)(=O)C2CC2)NC(=O)C2CC(Oc3ccnc(-c4ccccc4)n3)CC2C1=O` (stereo not shown) [Example 10, Cyclopropanesulfonic acid [13-methyl-2,14-dioxo-17-(2-phenylpyrimidin-4-yloxy)-3,13-diaza-tricyclo[13.3.0.0*4,6*]octadec-7-ene-4-carbonyl]-amide] gave a ring closure, yield after HPLC of 16%. The negative logarithm of the EC50 (pEC50) in series [3] is less than 5.00. Further, the pKi in series [4] is less than 6.00.
